IC50 and Ki data for eight compounds are collected here from ChEMBL document CHEMBL5226329, “Synthetic and computational efforts towards the development of peptidomimetics and small-molecule SARS-CoV 3CLpro inhibitors” (Bioorg Med Chem, 2021).

Assay [1] can be described thus: Inhibition of recombinant Hepatitis A virus proteinase 3C using Ac-Leu-Ala-Ala-OH as a substrate expressed in Escherichia coli incubated for 15 mins by SDS-PAGE assay. Also on record: species or system Hepatovirus A.
Assay [2] is described as follows: Inhibition of Severe acute respiratory syndrome coronavirus proteinase 3C using (Dabcyl-KTSAVLQSGFRKME-Edans peptide as a substrate by fluorescence based assay. The arrangement: species or system Severe acute respiratory syndrome-related coronavirus.
Assay [3] is described as follows: Inhibition of Severe acute respiratory syndrome coronavirus proteinase 3C using (Dabcyl-KTSAVLQSGFRKME-Edans peptide as a substrate assessed as inhibition constant by fluorescence based assay. Also on record: species or system Severe acute respiratory syndrome-related coronavirus.
The nature of assay [4]: Inhibition of Severe acute respiratory syndrome coronavirus proteinase 3C using Abz-SVTLQSG-Tyr(NO2)R peptide as a substrate. Also on record: species or system Severe acute respiratory syndrome-related coronavirus.
Assay [5] can be described thus: Inhibition of Severe acute respiratory syndrome coronavirus proteinase 3C using Dabcy-KTSAVLQSGFRKME-Edans peptide as a substrate. The arrangement: species or system Severe acute respiratory syndrome-related coronavirus.
Assay [6] can be described thus: Inhibition of Severe acute respiratory syndrome coronavirus proteinase 3C by FRET assay. The arrangement: species or system Severe acute respiratory syndrome-related coronavirus.
The nature of assay [7]: Inhibition of Severe acute respiratory syndrome coronavirus proteinase 3C using Dabcy-KTSAVLQSGFRKME-Edans peptide as a substrate incubated for 10 mins by fluorescence based assay. Also on record: species or system Severe acute respiratory syndrome-related coronavirus.
The nature of assay [8]: Inhibition of Severe acute respiratory syndrome coronavirus proteinase 3C assessed as inhibition constant by spectrophotometry assay. Also on record: species or system Severe acute respiratory syndrome-related coronavirus.
Assay [9] can be described thus: Inhibition of Severe acute respiratory syndrome coronavirus proteinase 3C using EDANS-Val-Asn-Ser-Thr-Leu-Gln-Ser-Gly-Leu-Arg-Lys-(Dabcyl)-Met substrate incubated for 1 hr by fluorescence based assay. Also on record: species or system Severe acute respiratory syndrome-related coronavirus.

Where a SMILES comes first, the peptide text is derived from it. The star is where a group is joined. Cbz = O=C(OCc1ccccc1)*; CF3 = FC(F)(F)*

With `CC(=O)N[C@@H](CC(C)C)C(=O)N[C@@H](C)C(=O)N[C@@H](C)C(=O)N[C@@H](C[C@@H]1CCNC1=O)C(=O)Cn1[nH]c(=O)c2c([N+](=O)[O-])cccc2c1=O`, in assay [1], the IC50 worked out at 1600 nM.
With `CC(=O)N[C@@H](CC(C)C)C(=O)N[C@@H](C)C(=O)N[C@@H](C)C(=O)N[C@@H](CCC(=O)N(C)C)C(=O)Cn1[nH]c(=O)c2ccccc2c1=O`, the IC50 in assay [1] came out at 13000 nM.
As to `CN(C)c1ccc(C(=O)N[C@@H](Cc2ccccc2)C(=O)Nc2ccc([N+](=O)[O-])cc2Cl)cc1`, in assay [2], the IC50 was 60 nM. The Ki in [3] came out at 30 nM.
As for `CC(=O)N[C@H](C(=O)N[C@H](C(=O)N[C@@H](CC(C)C)C(=O)N[C@@H](C[C@@H]1CCNC1=O)C(=O)Cn1[nH]c(=O)c2c([N+](=O)[O-])cccc2c1=O)C(C)OCc1ccccc1)C(C)C` (stereo not given in full), 600 nM corresponded to half-maximal inhibition in assay [4] (IC50).
Regarding `O=C[C@H](C[C@@H]1CCNC1=O)NC(=O)[C@H](Cc1ccccc1)NC(=O)/C=C/c1ccc(Cl)cc1F`, the half-inhibitory concentration (IC50) in assay [5] worked out at 200 nM.
Regarding `O=C(/C=C/c1ccccc1)Nc1ccccc1SC(=O)/C=C/c1ccccc1`, the half-inhibitory concentration (IC50) in [6] and in assay [7] was 1060 nM throughout.
`CC(C)C[C@H](NC(=O)[C@@H](NC(=O)OCc1ccccc1)C(C)C)C(=O)N[C@@H](CCC(=O)O)C(=O)C(F)(F)F` (Cbz-Val-Leu-Glu-CF3): the Ki in assay [8] was 116000 nM.
As for `CN(C)CCCSc1ccccc1NC(=O)/C=C/c1ccccc1` [CINANSERIN], it took 19000 nM to reach half-maximal inhibition in assay [9] (IC50).

Broadly, the IC50 is the concentration needed to halve the response being measured. The term Ki denotes the dissociation constant of the complex between target and ligand, obtained from inhibition or displacement.
